As a reminder, the IC50 is the concentration needed to halve the response being measured.

SMILES strings stand for the structures.

For assay [1], the target named is T1, PI3K-α (PIK3CA) wild-type (WT), p110α/p85α complex (Homo sapiens, UniProt P42336).
T1 construct: Recombinant, catalytically active human full length PIK3KA Wild-type and H1047R mutant; 6×His (N); purchased EMD Millipore Sigma 14-602M
In words: PI3K-alpha kinase (PIK3CA) biochemical activity, ADP-Glo, wild-type. To be noted: Soy PI lipid substrate. An outline of the steps: (§1)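 ADP formation measured by ADP-Glo luminescence after reaction at 27 °C to about 10% ATP turnover, using 20 uM ATP, 50 uM PIP2diC8 or soy PI lipid, HEPES pH 7.4 with MgCl2. Enzyme (1-5 nM WT or H1047R p110α/p85α) and compound preincubated 1 h first; 10-point 1:3 curves fitted four-parameter for IC50.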
Background: ADP-Glo turns the ADP formed in a reaction into a luminescent signal.

In assay [2] the target is T2, PI3K-α (PIK3CA) H1047R mutant, p110α/p85α complex (Homo sapiens, UniProt P42336, H1047R).
T2 construct: Recombinant, catalytically active human full length PIK3KA Wild-type and H1047R mutant; 6×His (N); purchased EMD Millipore Sigma 14-792M
In words: PI3K-alpha kinase (PIK3CA) biochemical activity, ADP-Glo, H1047R mutant. Particulars: Soy PI lipid substrate. An outline of the steps: as §1

In assay [3] the target is PI3K-α (PIK3CA) in MDA-MB-453 cells (Homo sapiens, UniProt P42336). In words: PI3K-alpha kinase (PIK3CA) in vitro cell based assay, MDA-MB-453 cells, SureFire Ultra AlphaLisa. To be noted: read-out: PI3K-α (PIK3CA) in vitro cell based assay IC50. Summed up: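 Cells treated 3 h in serum-free MEM with 1 μg/mL insulin, 10-point 1:3 series in 0.3% DMSO, then lysed for SureFire Ultra AlphaLisa read-out. Inhibition normalized to DMSO (max) and 1 μM GDC-0032 (min); duplicate averages fitted by 4-parameter logistic for relative IC50.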
Background: Alpha assays give light when donor and acceptor beads are brought close together.

Sequence of PI3K-α (PIK3CA) in MDA-MB-453 cells (P27986 2-724): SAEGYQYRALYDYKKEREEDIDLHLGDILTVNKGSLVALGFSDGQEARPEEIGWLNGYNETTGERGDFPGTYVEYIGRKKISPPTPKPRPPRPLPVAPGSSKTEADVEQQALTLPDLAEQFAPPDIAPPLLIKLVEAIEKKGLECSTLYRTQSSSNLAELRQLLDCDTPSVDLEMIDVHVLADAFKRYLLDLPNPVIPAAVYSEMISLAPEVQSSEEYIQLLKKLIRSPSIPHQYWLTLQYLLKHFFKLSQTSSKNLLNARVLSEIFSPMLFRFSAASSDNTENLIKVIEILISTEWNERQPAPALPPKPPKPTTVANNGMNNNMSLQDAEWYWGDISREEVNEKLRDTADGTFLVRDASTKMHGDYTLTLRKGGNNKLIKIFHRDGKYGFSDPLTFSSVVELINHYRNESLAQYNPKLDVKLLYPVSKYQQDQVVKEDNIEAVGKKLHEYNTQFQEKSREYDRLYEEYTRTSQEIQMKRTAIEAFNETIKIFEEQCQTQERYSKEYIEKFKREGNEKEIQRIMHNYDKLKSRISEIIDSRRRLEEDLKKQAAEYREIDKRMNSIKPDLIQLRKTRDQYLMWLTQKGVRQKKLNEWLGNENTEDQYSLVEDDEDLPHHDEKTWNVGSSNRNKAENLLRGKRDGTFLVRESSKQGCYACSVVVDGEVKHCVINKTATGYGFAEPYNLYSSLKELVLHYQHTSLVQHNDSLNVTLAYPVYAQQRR
Sequence of PI3K-α (PIK3CA) in MDA-MB-453 cells (P42336 whole entry): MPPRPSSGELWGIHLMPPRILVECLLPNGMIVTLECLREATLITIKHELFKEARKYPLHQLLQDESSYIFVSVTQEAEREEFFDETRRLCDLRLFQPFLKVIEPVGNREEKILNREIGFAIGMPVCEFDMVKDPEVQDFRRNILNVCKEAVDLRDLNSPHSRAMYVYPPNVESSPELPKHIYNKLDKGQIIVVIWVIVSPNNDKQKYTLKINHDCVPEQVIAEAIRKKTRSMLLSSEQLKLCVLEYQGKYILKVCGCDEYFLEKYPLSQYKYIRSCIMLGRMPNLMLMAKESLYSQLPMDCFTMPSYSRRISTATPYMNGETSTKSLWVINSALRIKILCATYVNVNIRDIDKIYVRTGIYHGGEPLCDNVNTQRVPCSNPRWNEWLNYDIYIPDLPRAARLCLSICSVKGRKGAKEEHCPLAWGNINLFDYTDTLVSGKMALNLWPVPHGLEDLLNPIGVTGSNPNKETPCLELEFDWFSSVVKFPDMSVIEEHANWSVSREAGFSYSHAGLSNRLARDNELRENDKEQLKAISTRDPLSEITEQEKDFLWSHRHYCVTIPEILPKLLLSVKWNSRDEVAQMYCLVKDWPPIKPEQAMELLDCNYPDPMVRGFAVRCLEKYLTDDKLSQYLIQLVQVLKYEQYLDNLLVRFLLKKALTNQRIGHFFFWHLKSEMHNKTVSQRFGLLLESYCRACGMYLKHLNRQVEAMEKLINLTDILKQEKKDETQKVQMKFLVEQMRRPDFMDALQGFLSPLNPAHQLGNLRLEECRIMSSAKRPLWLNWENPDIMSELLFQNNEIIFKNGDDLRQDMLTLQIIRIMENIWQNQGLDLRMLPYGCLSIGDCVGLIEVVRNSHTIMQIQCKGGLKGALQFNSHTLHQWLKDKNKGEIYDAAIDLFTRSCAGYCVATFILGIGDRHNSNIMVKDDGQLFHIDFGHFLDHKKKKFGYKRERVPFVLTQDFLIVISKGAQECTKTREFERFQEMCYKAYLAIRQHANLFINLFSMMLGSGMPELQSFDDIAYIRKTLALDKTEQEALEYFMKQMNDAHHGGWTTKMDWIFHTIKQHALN
T2 sequence (P42336 whole entry H1047R): as the sequence (P42336 whole entry) above, with H1047R counted along it
T2 sequence (P27986 whole entry partner): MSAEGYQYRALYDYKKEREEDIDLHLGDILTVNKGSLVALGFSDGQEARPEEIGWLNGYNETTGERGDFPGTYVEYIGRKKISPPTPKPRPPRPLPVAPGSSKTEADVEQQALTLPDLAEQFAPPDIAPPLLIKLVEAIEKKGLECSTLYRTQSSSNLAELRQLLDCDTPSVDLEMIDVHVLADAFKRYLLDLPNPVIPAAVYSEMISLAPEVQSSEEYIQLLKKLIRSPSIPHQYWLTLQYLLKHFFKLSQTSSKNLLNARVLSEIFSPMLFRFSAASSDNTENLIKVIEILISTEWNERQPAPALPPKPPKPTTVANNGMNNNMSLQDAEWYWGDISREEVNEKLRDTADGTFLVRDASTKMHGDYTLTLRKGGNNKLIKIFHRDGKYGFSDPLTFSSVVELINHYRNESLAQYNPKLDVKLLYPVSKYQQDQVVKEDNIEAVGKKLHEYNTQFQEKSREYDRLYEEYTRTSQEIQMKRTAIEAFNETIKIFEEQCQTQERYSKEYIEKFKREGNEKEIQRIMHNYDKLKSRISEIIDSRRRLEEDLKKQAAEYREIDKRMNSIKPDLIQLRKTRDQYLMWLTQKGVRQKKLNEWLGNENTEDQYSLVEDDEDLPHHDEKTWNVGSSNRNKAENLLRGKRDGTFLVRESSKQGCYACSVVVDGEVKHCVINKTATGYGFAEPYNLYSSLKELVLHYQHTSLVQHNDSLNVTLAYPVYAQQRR

For the compound `Cc1cc(C(C)Nc2ccccc2C(=O)O)c2oc(-c3ccc4c(cnn4C)c3)c(C)c(=O)c2c1` (single isomer, unassigned) [Example 150, 2-[1-[3,6-Dimethyl-2-(1-methylindazol-5-yl)-4-oxo-chromen-8-yl]ethylamino]benzoic acid], the IC50 in assay [1] is < 500 nM; in assay [2], < 500 nM; in assay [3], < 50 nM.

As to `COc1ccc2cc(-c3cc(=O)c4cc(C)cc([C@@H](C)Nc5ccccc5C(=O)O)c4o3)cc(C)c2n1` [Example 248, 2-[[(1R)-1-[2-(2-Methoxy-8-methyl-6-quinolyl)-6-methyl-4-oxo-chromen-8-yl]ethyl]amino]benzoic acid], the IC50 in assay [1] was 1000 to 5000 nM; in assay [2], 500 to 1000 nM; in assay [3], 100 to 500 nM.

In the case of `Cc1cc(C(C)Nc2ccccc2C(=O)O)c2oc(-c3ccc4[nH]ncc4c3)cc(=O)c2c1` (single isomer, unassigned) [Example 60, 2-[1-[2-(1H-Indazol-5-yl)-6-methyl-4-oxo-chromen-8-yl]ethylamino]benzoic acid], the IC50 in assay [1] was 500 to 1000 nM; in assay [2], < 500 nM; in assay [3], < 50 nM.

With `Cc1cc([C@@H](C)Nc2cccc(F)c2C(=O)O)c2oc(-c3ccc4nc(C)cn4c3)cc(=O)c2c1` [Example 228, 2-Fluoro-6-[[(1R)-1-[6-methyl-2-(2-methylimidazo[1,2-a]pyridin-6-yl)-4-oxo-chromen-8-yl]ethyl]amino]benzoic acid], the IC50 in assay [1] was 500 to 1000 nM; in assay [2], < 500 nM; in assay [3], 100 to 500 nM.

As for `Cc1cc([C@@H](C)Nc2ccccc2C(=O)O)c2oc(-c3ccc4c(cnn4Cc4ccccc4)c3)c(C)c(=O)c2c1` [Example 211, 2-[[(1R)-1-[2-(1-Benzylindazol-5-yl)-3,6-dimethyl-4-oxo-chromen-8-yl]ethyl]amino]benzoic acid], the IC50 in assay [1] is 500 to 1000 nM; in assay [2], < 500 nM; in assay [3] it was 50 to 100 nM.

On to `Cc1cc(C(C)Nc2ccccc2C(=O)O)c2oc(-c3ccc4nc(C)sc4c3)cc(=O)c2c1` (single isomer, unassigned) [Example 74, 2-[1-[6-Methyl-2-(2-methyl-1,3-benzothiazol-6-yl)-4-oxo-chromen-8-yl]ethylamino]benzoic acid], for which the values for the IC50 in assay [1], in assay [2] and in assay [3] were 500 to 1000 nM, < 500 nM and < 50 nM, respectively.

Consider `Cc1cc(C(C)Nc2ccccc2C(=O)O)c2oc(-c3ccc4nn(C)cc4c3)cc(=O)c2c1` (single isomer, unassigned) [Example 8, 2-[1-[6-Methyl-2-(2-methylindazol-5-yl)-4-oxo-chromen-8-yl]ethylamino]benzoic acid], for which the IC50 in assay [1] was 500 to 1000 nM; in assay [2] it was < 500 nM; in assay [3], < 50 nM.

`Cc1cc([C@@H](C)Nc2ccc(Cl)nc2C(=O)O)c2oc(-c3ccc4nc(C)sc4n3)c(C)c(=O)c2c1` [Example 242, 6-Chloro-3-[[(1R)-1-[3,6-dimethyl-2-(2-methylthiazolo[5,4-b]pyridin-5-yl)-4-oxo-chromen-8-yl]ethyl]amino]pyridine-2-carboxylic acid]: the IC50 was 500 to 1000 nM in assay [1], < 500 nM in assay [2] and < 50 nM in assay [3].

With `Cc1cc(C(C)Nc2ccccc2C(=O)O)c2oc(-c3cc(Cl)c4nn(C)cc4c3)cc(=O)c2c1` (single isomer, unassigned) [Example 95, 2-[1-[2-(7-Chloro-2-methyl-indazol-5-yl)-6-methyl-4-oxo-chromen-8-yl]ethylamino]benzoic acid], the IC50 was 500 to 1000 nM in assay [1], < 500 nM in assay [2] and < 50 nM in assay [3].

As for `Cc1cc(C(C)Nc2ccccc2C(=O)O)c2oc(-c3cc(C)c4nn(C)cc4c3)cc(=O)c2c1` (single isomer, unassigned) [Example 126, 2-[1-[2-(2,7-Dimethylindazol-5-yl)-6-methyl-4-oxo-chromen-8-yl]ethylamino]benzoic acid], the values for the IC50 in assay [1], in assay [2] and in assay [3] were 1000 to 5000 nM, < 500 nM and < 50 nM, respectively.
